We go through 2 molecules from patent US9884866B2, “Immunomodulators and immunomodulator conjugates” (REGENTS OF THE UNIVERSITY OF MINNESOTA, priority 2014, dated 2018).

The assay relates to Bone marrow derived dendritic cells (BMDC). Kind of assay: Measurement of proinflammatory cytokines with cytometric bead assay in BMDC. The note with it: BMDC stimulated with 30 μM of compound for 3 days; supernatant. It counts as cell-based, C57BL/6 mice. On the procedure: Measurement of Proimflammatory Cytokines with Cytometric Bead Assay:
Bone marrow derived dendritic cells (BMDC) were generated by isolating a single cell suspension of marrow from the femur of C57BL/6 mice (6-8 weeks of age). Red blood cells were lysed with 0.83% NH4Cl, 0.1% KHCO3 and […] cells were seeded in each of well of a 6 well plate in complete RPMI media (Invitrogen, Grand Island, N.Y.), supplemented with mouse 20 ng/ml Granulocyte-Macrophage Colony Stimulating Factor (PeproTech, Rocky Hill, N.J.). After 6 days after culture, BMDC were stimulated with 30 μM of compound for 3 days. 25 μL of supernatant was then removed and assayed for TNFα, IL-12p40, IL-1β and IL-10 using a flow cytometric bead array according to the manufacturers' instructions (BD Bioscience, San Jose, Calif.). Controls were performed using the addition of media and carrier with no drug. Flow cytometry was performed on a FACS canto-II (BD Bioscience) and data were analyzed using Flowjo software (Tree Star, Inc. Ashland, Oreg.).

On to `CCCCc1nc2c(N)nc3cc(NS(=O)(=O)c4ccccc4)ccc3c2n1CC(C)O` (centres unmarked) [Compound 543], for which the IL-1b was determined as 128 ± 13 pg/mL, the IL-10 turned out to be 151 ± 24 pg/mL, the IL-12/23p40 is 57 ± 8 pg/mL and the TNF is 725 ± 77 pg/mL.
The molecule `CCCCc1nc2c(N)nc3cc(S(=O)(=O)c4ccccc4)ccc3c2n1CC(C)O` (centres unmarked) [Compound 548, 4-amino-2-butyl-1-(2-hydroxypropyl)-7-benzenesulphonyl-1H-imidazo[4,5-c]quinoline] yielded an IL-1b of 19 ± 2 pg/mL, an IL-10 of 29 ± 2 pg/mL, an IL-12/23p40 of 176 ± 25 pg/mL and a TNF of 1456 ± 111 pg/mL.
